From US20230332232A1, “COMPOSITIONS AND METHODS FOR DIAGNOSING AND TREATING A DYSTONIA” (Duke University, priority 2020, published 2023)

Experiments:
WT TorsinA = details: cited from earlier work
[1] = tested on: wild-type (WT) murine embryonic fibroblasts (MEFs); experiment: microRNA-seq of EVs from WT MEFs treated with drug, compared with non-treated WT MEFs; format: cell-based, mouse; details: for ISRIB Direction Same as dE?: EVs of WT MEFs
Protocol: In addition to proteomic analysis, total RNA-seq and microRNA-seq was performed on RNA isolated in parallel from the EV samples of Cohort 2. As with the proteomic analysis, one biological replicate was prepared from 3 distinct biological clonal cell lines for each genotype. Here, EVs were isolated from conditioned cell culture media by 18 hour ultracentrifugation at 100,000 g. RNA was extracted using the Qiagen miRNeasy Micro Kit (Cat. No. 217084) according to the manufacturer's protocol. Two RNA fractions were extracted from each sample, one enriched in coding and non-coding RNA species>200 nt (“Total RNA” fraction) and one enriched for small RNAs<200 nt (“miRNA” fraction).
RNA samples were then submitted to the Duke Sequencing and Genomic Technologies shared resource for further quality control and sequencing. Samples were assessed for concentration and integrity by Qubit and Fragment Analyzer. The miRNA fractions were 4.16 ng/μL-47.57 ng/μL and total RNA fractions were 3.8 ng/μL-43.6 ng/μL. The small RNA library was prepared using the QIAseq miRNA Library Kit (Cat No./ID: 331505) and sequenced on the Illumina NextSeq 500 High-Output platform with 75 bp single-reads. The total RNA library was prepared using the Illumina TruSeq Stranded Total RNA-seq Kit with Ribozero Gold ribosomal RNA reduction and sequenced on the Illumina NovaSeq 6000 S1 platform with 100 bp paired-end reads. Sequencer lane pooling and read depth are attached in the Excel data summary (See “RNA QC” Tab).
Data processing and analysis were performed in collaboration with the Duke Genomic Analysis and Bioinformatics shared resource. RNA-seq data was processed using the TrimGalore toolkit (http://www.bioinformatics.babraham.ac.uk/projects/trim_galore), which employs Cutadapt(Martin M. (2011) EMBnet.journal. 17(1):10-12) to trim low quality bases and Illumina sequencing adapters from the 3′ end of the reads. Only reads that were 20 nt or longer after trimming were kept for further analysis. Reads were mapped to the mouse genome and transcriptome (Kersey P J, et al. (2012) Nucleic Acids Res. 40(Database issue):D91-97) using the STAR RNA-seq alignment tool (Dobin A, et al. (2013). Bioinformatics. 29(1):15-21). If the reads mapped to a single genomic location, then they were kept for subsequent analysis. Gene counts were compiled using the HTSeq tool (http://www-huber.embl.de/users/anders/HTSeq/). Only genes that had at least 10 reads in any given library were used in subsequent analysis. Normalization and differential expression was carried out using the DESeq26 Bioconductor (Huber W, et al. (2015) Nat Methods. 12(2):115-121) package with the R statistical programming environment (www.r-project.org). The false discovery rate was calculated to control for multiple hypothesis testing and p-values were adjusted to an FDR of 5%.
694 miRNAs were initially examined with respect to QC, genotype, RTV effects, and ISRIB effects. This subset was the “Full miRNA” subset. FIG. 9A and FIG. 9B show the RTV effect on EV composition in DYT1 cells compared to WT cells for 279 miRNAs, respectively.

[2] = tested on: DYT1 knockin (Tor1a^delGAG/+) murine embryonic fibroblasts (MEFs); experiment: Untargeted LC/MS/MS proteomics of EVs from DYT1 MEFs exposed 24 hours to drug, compared with untreated DYT1 (Het) MEFs; format: cell-based, mouse
[3] = ISRIB-treated vs non-treated WT MEF EVs

O=C(COc1ccc(Cl)cc1)NC1CCC(NC(=O)COc2ccc(Cl)cc2)CC1 (stereo not shown) [ISRIB]
subcellular localization of WT TorsinA (WT TorsinA): alter the normal subcellular localization of WT TorsinA in a way that was more similar to the distribution of dE TorsinA in DYT1
mmu-miR-147-5p: ISRIB Direction Same as dE? [1, 3]: yes
mmu-miR-147-5p: ISRIBvWT Z Score [1, 3]: −0.31
mmu-miR-181a-1-3p: ISRIBvWT Z Score [1, 3]: −0.20
mmu-miR-331-5p: ISRIBvWT Z Score [1, 3]: 0.56
mmu-miR-668-3p: ISRIBvWT Z Score [1, 3]: −1.49
mmu-miR-1930-5p: ISRIB Direction Same as dE? [1, 3]: yes
mmu-miR-1930-5p: ISRIBvWT Z Score [1, 3]: 0.71
mmu-miR-1943-5p: ISRIBvWT Z Score [1, 3]: −1.07
mmu-miR-1955-5p: ISRIBvWT Z Score [1, 3]: 1.21
mmu-miR-3072-5p: ISRIBvWT Z Score [1, 3]: 0.00
mmu-miR-3076-3p: ISRIBvWT Z Score [1, 3]: 0.25
mmu-miR-3088-3p: ISRIBvWT Z Score [1, 3]: −0.45
mmu-miR-6936-3p: ISRIBvWT Z Score [1, 3]: −0.38
mmu-miR-7224-3p: ISRIB Direction Same as dE? [1, 3]: yes
mmu-miR-7224-3p: ISRIBvWT Z Score [1, 3]: −1.07
mmu-miR-467d-3p: ISRIB Direction Same as dE? [1, 3]: yes
mmu-miR-467d-3p: ISRIBvWT Z Score [1, 3]: −0.71
ISRIB Direction Same as dE? ([1]; mmu-let-7f-5p): yes
ISRIB Direction Same as dE? ([1]; mmu-let-7i-5p): yes
ISRIB Direction Same as dE? ([1]; mmu-miR-30e-5p): yes
ISRIB Direction Same as dE? ([1]; mmu-miR-19b-3p): yes
ISRIB Direction Same as dE? ([1]; mmu-miR-22-3p): yes
ISRIB Direction Same as dE? ([1]; mmu-miR-26b-Sp): yes
ISRIB Direction Same as dE? ([1]; mmu-miR-30a-5p): yes
ISRIB Direction Same as dE? ([1]; mmu-miR-30c-5p): yes
ISRIB Direction Same as dE? ([1]; mmu-miR-31-5p): yes
ISRIB Direction Same as dE? ([1]; mmu-miR-34a-5p): yes
ISRIB Direction Same as dE? ([1]; mmu-miR-34c-5p): yes
ISRIB Direction Same as dE? ([1]; mmu-miR-93-5p): yes
ISRIB Direction Same as dE? ([1]; mmu-miR-96-5p): yes
ISRIB Direction Same as dE? ([1]; mmu-miR-103-3p): yes
ISRIB Direction Same as dE? ([1]; mmu-miR-125b-1-3p): yes
ISRIB Direction Same as dE? ([1]; mmu-miR-130b-3p): yes
ISRIB Direction Same as dE? ([1]; mmu-miR-135a-5p): yes
ISRIB Direction Same as dE? ([1]; mmu-miR-140-3p): yes
ISRIB Direction Same as dE? ([1]; mmu-miR-148a-3p): yes
ISRIB Direction Same as dE? ([1]; mmu-miR-182-5p): yes
ISRIB Direction Same as dE? ([1]; mmu-miR-183-5p): yes
ISRIB Direction Same as dE? ([1]; mmu-miR-187-3p): yes
ISRIB Direction Same as dE? ([1]; mmu-miR-192-5p): yes
ISRIB Direction Same as dE? ([1]; mmu-miR-199a-3p): yes
ISRIB Direction Same as dE? ([1]; mmu-miR-199b-3p): yes
ISRIB Direction Same as dE? ([1]; mmu-miR-296-3p): yes
ISRIB Direction Same as dE? ([1]; mmu-miR-298-5p): yes
ISRIB Direction Same as dE? ([1]; mmu-miR-344-3p): yes
ISRIB Direction Same as dE? ([1]; mmu-miR-362-3p): yes
ISRIB Direction Same as dE? ([1]; mmu-miR-362-5p): yes
ISRIB Direction Same as dE? ([1]; mmu-miR-532-5p): yes
ISRIB Direction Same as dE? ([1]; mmu-miR-542-5p): yes
ISRIB Direction Same as dE? ([1]; mmu-miR-671-5p): yes
ISRIB Direction Same as dE? ([1]; mmu-miR-1291): yes
ISRIB Direction Same as dE? ([1]; mmu-miR-3535): yes
ISRIB Direction Same as dE? ([1]; mmu-miR-5121): yes
ISRIB Direction Same as dE? ([1]; mmu-miR-30h-5p): yes
ISRIB Direction Same as dE? ([1]; mmu-miR-344d-3p): yes

O=C(/C=C/c1ccccc1)NC(NC(=S)Nc1cccc2cccnc12)C(Cl)(Cl)Cl (stereo not shown) [SAL, Salubrinal]
SAL Direction Opposite ISRIB? ([2]; EV protein: ATP- binding cassette sub-family [?] member 1): yes
SAL Direction Opposite ISRIB? ([2]; EV protein: Nerine arginine-rich splicing factor [?]): yes
